According to patent US12544354B2 (RIKEN, priority 2019, dated 2026):

Key:
[1] = tested on: mitochondrial permeability transition pore (mPTP); test: mPTP-opening inhibitory activity test (calcium retention capacity, CRC) in mitochondria isolated from mouse brain; assay type: biochemical; details: for mPTP-Opening inhibitory activity at 1.0 μM compound concentration CRC/CRC (DMSO): mitochondria from C57B6J mouse brain, ratio of calcium required for mPTP-opening with compound vs DMSO control
Description: In this test, inhibitory effects of mPTP in mitochondria isolated from the brain were evaluated.
The mPTP-opening inhibitory activity and efficacy of test compounds are determined by evaluating inhibitory potency thereof against opening of mPTP formed of inner and outer mitochondrial membranes, by in-vitro assay described later.
The animal was humanely euthanized by cervical dislocation, and the brain was excised out. The brain excised out was put in an isolation buffer (280 mM sucrose, 10 mM 3-morpholinopropanesulfonic acid (MOPS), 1 mM ethylenediamine tetraacetic acid dipotassium salt (EDTA-2K), pH 7.2) cooled in ice. The brain was rinsed with the buffer cooled in ice and cut by scissors in the buffer put in a beaker placed on ice. The cut pieces were transferred to a Dounce glass homogenizer. The buffer was exchanged with an isolation buffer containing 12% Percoll, and the cut pieces were homogenized. The cut pieces were homogenized four times by use of a loose pestle and 8 times by use of a tight pestle while vertically rotating. The homogenate was gently overlaid on the layer formed of two portions different in density of Percoll (26%, 40%) in 50 ml-centrifuge tubes, which were then spun by a centrifuge (HITACHI CR22N, rotor R20A2) maintained at 4° C. at 30700×g for 5 minutes. The intermediate layer between the 26% layer and the 40% layer was carefully sucked by use of a 23 G needle, added in an isolation buffer (24 ml) previously cooled in ice, and spun by a centrifuge at 16700×g to allow mitochondria to precipitate as a pellet. The supernatant was gently discarded and the mitochondria was suspended. The amount of the mitochondrial suspension was measured and an aliquot of 20 μl was taken for determining protein concentration. To the mitochondrial suspension, 10 mg/ml BSA ([…]) was added and further an isolation buffer was added up to a volume of 1.2 ml (final concentration 1 mg/mL). The suspension was transferred to 2.0 ml tubes and then centrifuged. The supernatant was discarded and mitochondrial pellets were obtained and stored in ice. The protein amount of mitochondria was measured in accordance with the Bradford method.
To mitochondrial pellets isolated, a measurement buffer (210 mM sucrose, 20 mM potassium chloride, 3 mM glycylglycine and 1 mM potassium dihydrogen phosphate) containing a fluorescent calcium indicator, calcium green-5N (200 nM), was added to as to obtain a concentration of 150 μg/ml. In this manner, a mitochondrial suspension was prepared. Calcium green, which binds to calcium and emits fluorescence, is used as a probe for quantification. When calcium green is added to a mitochondrial suspension, the presence of calcium in the external fluid thereof can be detected. The mitochondrial suspension prepared by suspending mitochondria with the measurement buffer containing 400 nM calcium green was added in wells of a 96 well plate. To predetermined wells, a measurement buffer containing 40 mM glutamic acid, 4 mM malic acid and a double-concentration of test compound was added to prepare a mitochondrial suspension of 100 μl/well (final concentration: 20 mM glutamic acid, 2 mM malic acid). To the mitochondrial suspension in the wells of the 96 well plate, calcium was continuously added dropwise (10 μl of 117 μM CaCl2) was added in a rate of 100 μl/well, final concentration 11.7 μM), and the fluorescence value reflecting the amount of extramitochondrial calcium was determined ([…]). The measurement was carried out by a functional drug screening system, FDSS3000 (Hamamatsu Photonics K. K.). Incubation at 30° C. and shaking of the well plate were carried out by devices equipped in the system. Calcium (CaCl2)) was added at intervals of one minute in accordance with the program of FDSS3000 software.

PC12 cells = test: Cell death inhibitory activity test: glutamic acid-induced cell death of PC12 cells (MTS assay); assay type: cell-based, rat; details: test compound 1, 3, 10 or 30 μM, added 24 h before glutamic acid; cell viability by MTS 48 h later
Text: Simultaneously when mitochondria take up calcium, the membrane potential dissipates and mPTP opens. Physiologically, hydrogen peroxide generates in the mitochondrial respiratory chain with opening of mPTP and may further produce a damage to not only mitochondria but also cells. […] Oxidative stress ascribed to hydrogen peroxide may cause cell damage downstream of Ca uptake. In the test, the relationship between mPTP-opening inhibitory effect on cells and cell death was studied by using rat adrenal pheochromocytoma-derived PC12 cells.
The PC12 cells used in the test are derived from rat adrenal pheochromocytoma but are differentiated into sympathetic neurons by a nerve growth factor, and known to cause cell death in a glutamic acid concentration dependent manner (Pereira C F, Oliveira, R, Neuroscience Research, vol. 37(3), p. 227-236, 2000, Oxidative glutamate toxicity involves mitochondrial dysfunction and perturbation of intracellular Ca^2+ homeostasis).
A growth medium (composition: Dulbecco modified MEM culture medium (Gibco 11885-084) containing 100 units of penicillin, 100 μg/mL streptomycin (Gibco 15-140-122), 2.5% inactivated fetal bovine serum (Gibco 10437-028) and 2.5% inactivated horse serum (Gibco 16050-130)) were prepared. PC12 cells were cultured in a culture dish (diameter: 100 mm, Corning 353003) containing 10 ml of the growth medium. PC12 cells cryopreserved were thawed, cultured in the growth medium for at least one week and used in the test. PC12 cells were removed with 0.25% trypsin-1 mM EDTA and subcultured. The following experiments were all carried out at 37° C. by a CO2 incubator in an atmosphere containing 5% CO2. […]
After addition of MTS for CellTiter 96 ® AQueous One Solution Cell Proliferation Assay (Promega G3580)), the microplate was placed in a CO2 incubator and incubation was carried out for 4 hours. Absorbance of individual wells at a wavelength of 490 nm was measured by a spectrophotometer (SpectraMax i3 manufactured by Molecular Devices) with 700 nm used as a reference wavelength. A cell viability was calculated in accordance with the following expression (1) based on the absorbance obtained. Note that, to reduce background non-specific absorption due to excessive cell residue, culture medium and others, the obtained absorbance data were corrected based on the absorbance at a reference wavelength of 700 nm. […] Cell viability (%)=[(Abs−Abm)/(Abc−Abm)]×100 Expression (1) • Abs: Absorbance of sample (well containing cells, glutamic acid-added medium and MTS solution) • Abc: Absorbance of negative control (well containing cells, control medium and MTS solution) • Abm: Absorbance of blank (well containing control medium and MTS solution) (Suppression of Cell Death in the Presence of Test Compound) […]

[2] = tested on: local cerebral ischemia mouse model (pMCA-O); test: Suppression test for cell death caused by cerebral ischemia: local cerebral ischemia mouse model by permanent middle cerebral artery occlusion (pMCA-O); details: mice, 100 mg/kg intraperitoneal
Description: In the test, to evaluate the action of test compounds to protect cells from cell death in vivo, a local cerebral ischemia mouse model was prepared by permanent middle cerebral artery occlusion (pMCA-O) and actions of test compounds to protect the cells at a brain injury site one day after occlusion were examined. Note that, for preparing a permanent middle cerebral artery occlusion model, C57BL/6JJmsSlc was used.
As the solvent, dimethyl sulfoxide (DMSO: FUJIFILM Wako Pure Chemical Corporation), polyethylene glycol (PEG400: FUJIFILM Wako Pure Chemical Corporation) and phosphate buffered saline (PBS: FUJIFILM Wako Pure Chemical Corporation) were used. The final concentrations of DMSO, PEG400 and PBS were set to be 15%, 50% and 35%, respectively. […]
One day after cerebral ischemia, the head of each of the mice was removed under anesthesia with 2% isoflurane and the whole brain was carefully excised out. […] These brain sections were stained in physiological saline containing 10 mL of 2% 2,3,5-triphenyl tetrazolium chloride (TTC) (manufactured by Hayashi Pure Chemical Ind., Ltd.) for 30 minutes (Bederson, J B et al., Stroke, 1986, vol. 17, p. 1304-1308, Evaluation of 2,3,5-triphenyltetrazolium chloride as a stain for detection and quantification of experiment a cerebral Infarction in rats). […]
The size of a brain injury site was determined as follows.

Row | Compound | mPTP-Opening inhibitory activity at 1.0 μM compound concentration CRC/CRC (DMSO) [1] | protection of PC12 cells from cell death induced by glutamic acid (FIG. 4) (PC12 cells) | also measured
1 | C[C@@]12OC(=O)[C@@H](C(=O)c3c(O)cccc31)[C@@H]2CC1=C(O)C(=O)C(C(N)=O)=C(O)C1=O [Compound I-1, 2,5-dihydroxy-4-(((1S,4R,10S)-6-hydroxy-1-methyl-3,5-dioxo-1,3,4,5-tetrahydro-1,4-methanobenzo[c]oxepin-10-yl)methyl)-3,6-dioxocyclohexa-1,4-dienocarboxamide] | 2.96 | protected PC12 cells, to no small extent | concentration needed to inhibit mPTP-opening compared with cyclosporine A (FIG. 2) ([1]; dose response of CRC/CRC(DMSO), FIG. 2): at a lower concentration than cyclosporine A; deaths of animals during the test period [2]: not seen; average brain injury rate, lower than the control group ([2]; one day after cerebral ischemia, total brain injury rate P<0.05, cerebral cortex injury rate P<0.01): about 25%
2 | C[C@@]12OC(=O)[C@@H](C(=O)c3c(O)cccc31)[C@@H]2Cc1c(O)c(O)c(C(N)=O)c(O)c1O [Compound I-2, 2,3,5,6-tetrahydroxy-4-(((1S,4R,10S)-6-hydroxy-1-methyl-3,5-dioxo-1,3,4,5-tetrahydro-1,4-methanobenzo[c]oxepin-10-yl)methyl)benzamide] | 2.92 |  | 
3 | CN(C)c1ccc(O)c2c1C[C@@H](CC1=C(O)C(=O)C(C(N)=O)=C(O)C1=O)CC2=O [Compound I-3, (S)-4-((8-(dimethylamino)-5-hydroxy-4-oxo-1,2,3,4-tetrahydronaphthalen-2-yl)methyl)-2,5-dihydroxy-3,6-dioxocyclohexa-1,4-dienecarboxamide] | 1.22 |  | 
4 | CC(=O)Oc1cccc2c1C(=O)[C@@H]1C(=O)O[C@@]2(C)[C@H]1Cc1c(OC(C)=O)c(OC(C)=O)c(C(N)=O)c(OC(C)=O)c1OC(C)=O [Compound I-4, 3-(((1S,4R,10S)-6-acetoxy-1-methyl-3,5-dioxo-1,3,4,5-tetrahydro-1,4-methanobenzo[c]oxepin-10-yl)methyl)-6-carbamoyl benzene-1,2,4,5-tetraryl tetraacetate] |  | stronger protective actions | 
5 | CC(C)(C)C(=O)Oc1cccc2c1C(=O)[C@@H]1C(=O)O[C@@]2(C)[C@H]1Cc1c(OC(=O)C(C)(C)C)c(OC(=O)C(C)(C)C)c(C#N)c(OC(=O)C(C)(C)C)c1OC(=O)C(C)(C)C [Compound I-5] |  | stronger protective actions | 
6 | C[C@@]12OC(=O)[C@@H](C(=O)c3c(OC(=O)c4ccccc4)cccc31)[C@@H]2Cc1c(OC(=O)c2ccccc2)c(OC(=O)c2ccccc2)c(C(N)=O)c(OC(=O)c2ccccc2)c1OC(=O)c1ccccc1 [Compound I-6, 3-(((1S,4R,10S)-6-(benzoyloxy)-1-methyl-3,5-dioxo-1,3,4,5-tetrahydro-1,4-methanobenzo[c]oxepin-10-yl)methyl)-6-carbamoyl benzene-1,2,4,5-tetraryl tetrabenzoate)] |  | stronger protective actions | 
7 | C[C@@]12OC(=O)[C@@H](C(=O)c3c(O)ccc(Cl)c31)[C@@H]2CC1=C(O)C(=O)C(C(N)=O)=C(O)C1=O [Compound Ia-1, 4-(((1S,4R,10S)-9-chloro-6-hydroxy-1-methyl-3,5-dioxo-1,3,4,5-tetrahydro-1,4-methanobenzo[c]oxepin-10-yl)methyl)-2,5-dihydro-3,6-dioxohexa-1,4-dienecarboxamide] | 1.66 |  | 
8 | C[C@@]12OC(=O)[C@@H](C(=O)c3c(O)ccc(Cl)c31)[C@@H]2Cc1c(O)c(O)c(C(N)=O)c(O)c1O [Compound Ia-2, 4-(((1S,4R,10S)-9-chloro-6-hydroxy-1-methyl-3,5-dioxo-1,3,4,5-tetrahydro-1,4-methanobenzo[c]oxepin-10-yl)methyl)-2,3,5,6-tetrahydroxybenzamide] | 1.50 |  | 
9 | C[C@@H]1c2cccc(O)c2C(=O)C[C@@H]1CC1=C(O)C(=O)C(C(N)=O)=C(O)C1=O [Compound Ia-3, 2,5-dihydroxy-4-(((1S,2S)-5-hydroxy-1-methyl-4-oxo-1,2,3,4-tetrahydronaphthalen-2-yl)methyl)-3,6-dioxocyclohexa-1,4-dienecarboxamide] | 3.00 |  | 
10 | C[C@@]12OC(=O)[C@@H](C(=O)c3c(O)cccc31)[C@@H]2CC1=C(O)C(=O)C(C#N)=C(O)C1=O [Compound Ia-4, 2,5-dihydroxy-4-(((1S,4R,10S)-6-hydroxy-1-methyl-3,5-dioxo-1,3,4,5-tetrahydro-1,4-methanobenzo[c]oxepin-10-yl)methyl)-3,6-dioxocyclohexa-1,4-dienocarbonitrile] | 1.59 |  | 
